Data: PubChem BioAssay AID330 (DTP/NCI, 2004)
Several values for one entry are separate records, joined by “and”; a condition that tells them apart may be missing. Identical values can stand only once. Inconclusive results and toxic doses are left out.

System: P388 leukemia ip, CD2F1 mice, survival T/C
Assay: NCI In Vivo Anticancer Drug Screen. Data for tumor model P388 Leukemia (intraperitoneal) in CD2F1 (CDF1) mice
Conditions: endpoint: median survival time, higher = longer survival
Procedure, shortened: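 Mice carrying the transplanted tumor received test compound or vehicle. Survival was recorded in each group, and the value is the treated-group measurement divided by that of the vehicle-treated control group.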

[1] = dose: 60.0 mg/kg/injection, schedule: Q01DX005 (ip), vehicle: saline with Tween-80
[2] = dose: 120.0 mg/kg/injection, schedule: Q01DX005 (ip), vehicle: saline with Tween-80
[3] = dose: 240.0 mg/kg/injection, schedule: Q01DX005 (ip), vehicle: saline with Tween-80
[4] = dose: 50.0 mg/kg/injection, schedule: Q01DX009 (ip), vehicle: Klucel (hydroxypropylcellulose) (HPC)
[5] = dose: 100.0 mg/kg/injection, schedule: Q01DX009 (ip), vehicle: Klucel (hydroxypropylcellulose) (HPC)
[6] = dose: 200.0 mg/kg/injection, schedule: Q01DX009 (ip), vehicle: Klucel (hydroxypropylcellulose) (HPC)
[7] = dose: 60.0 mg/kg/injection, schedule: Q01DX005 (ip), vehicle: Klucel (hydroxypropylcellulose) (HPC)
[8] = dose: 120.0 mg/kg/injection, schedule: Q01DX005 (ip), vehicle: Klucel (hydroxypropylcellulose) (HPC)
[9] = dose: 240.0 mg/kg/injection, schedule: Q01DX005 (ip), vehicle: Klucel (hydroxypropylcellulose) (HPC)
[10] = dose: 12.5 mg/kg/injection, schedule: Q01DX005 (ip), vehicle: Klucel (hydroxypropylcellulose) (HPC)
[11] = dose: 25.0 mg/kg/injection, schedule: Q01DX005 (ip), vehicle: Klucel (hydroxypropylcellulose) (HPC)
[12] = dose: 50.0 mg/kg/injection, schedule: Q01DX009 (ip), vehicle: saline with Tween-80
[13] = dose: 100.0 mg/kg/injection, schedule: Q01DX009 (ip), vehicle: saline with Tween-80
[14] = dose: 50.0 mg/kg/injection, schedule: Q01DX005 (ip), vehicle: Klucel (hydroxypropylcellulose) (HPC)
[15] = dose: 100.0 mg/kg/injection, schedule: Q01DX005 (ip), vehicle: Klucel (hydroxypropylcellulose) (HPC)
[16] = dose: 50.0 mg/kg/injection, schedule: Q01DX005 (ip), vehicle: saline with Tween-80
[17] = dose: 100.0 mg/kg/injection, schedule: Q01DX005 (ip), vehicle: saline with Tween-80

N#CN(Cc1ccccc1)C(c1ccccc1)(c1ccccc1)c1ccccc1.[Br][Sn]([c]1ccccc1)([c]1ccccc1)[c]1ccccc1
T/C (dose: 1.5 mg/kg/injection, schedule: Q01DX005 (ip), vehicle: saline with Tween-80): 98 % of control | T/C (dose: 3.0 mg/kg/injection, schedule: Q01DX005 (ip), vehicle: saline with Tween-80): 100 % of control | T/C (dose: 6.0 mg/kg/injection, schedule: Q01DX005 (ip), vehicle: saline with Tween-80): 101 % of control | T/C (dose: 6.25 mg/kg/injection, schedule: Q01DX005 (ip), vehicle: saline with Tween-80): 94 % of control

COC(=O)C1(C(=O)OC)ON1C(C)C (configuration not stated)
T/C (dose: 60.0 mg/kg/injection, schedule: Q01DX005 (ip), vehicle: saline): 98 % of control | T/C (dose: 120.0 mg/kg/injection, schedule: Q01DX005 (ip), vehicle: saline): 94 % of control | T/C (dose: 240.0 mg/kg/injection, schedule: Q01DX005 (ip), vehicle: saline): 116 % of control

C[N+](C)=c1ccc2nc3c(cc(NCCCNc4cc5oc6cc(=[N+](C)C)ccc-6nc5c5ccccc45)c4ccccc43)oc-2c1
T/C [1]: 106 % of control | T/C [2]: 113 % of control | T/C [3]: 103 % of control

C1CC2OCC1O2 (configuration not stated)
T/C (dose: 50.0 mg/kg/injection, schedule: Q01DX009 (ip), vehicle: saline): 100 % of control | T/C (dose: 100.0 mg/kg/injection, schedule: Q01DX009 (ip), vehicle: saline): 106 % of control | T/C (dose: 200.0 mg/kg/injection, schedule: Q01DX009 (ip), vehicle: saline): 100 % of control

NC(=O)NC(=O)C(Cc1ccc(Cl)cc1)c1ccccc1 (configuration not stated)
T/C (dose: 30.0 mg/kg/injection, schedule: Q01DX005 (ip), vehicle: saline with Tween-80): 96 % of control and 97 % of control | T/C [1]: 89 % of control and 94 % of control | T/C [2]: 87 % of control and 89 % of control | T/C [3]: 88 % of control

CCCCCCCCCCCCCCCCS(=O)(=O)N/N=c1/sc2ccc(S(=O)(=O)O)cc2n1C
T/C [4]: 115 % of control | T/C [5]: 102 % of control | T/C [6]: 94 % of control

NNC(=O)CCC(N)C(=O)O (configuration not stated)
T/C (dose: 50.0 mg/kg/injection, schedule: Q01DX009 (ip), vehicle: saline sonified): 100 % of control | T/C (dose: 50.0 mg/kg/injection, schedule: Q04DX003 (ip), vehicle: saline with Tween-80): 95 % of control | T/C (dose: 100.0 mg/kg/injection, schedule: Q01DX009 (ip), vehicle: saline sonified): 113 % of control | T/C (dose: 100.0 mg/kg/injection, schedule: Q04DX003 (ip), vehicle: saline with Tween-80): 90 % of control | T/C (dose: 200.0 mg/kg/injection, schedule: Q04DX003 (ip), vehicle: saline with Tween-80): 109 % of control

COc1ccc(C2OC(=O)C=C(C)O2)cc1 (configuration not stated)
T/C [7]: 104 % of control | T/C [8]: 98 % of control | T/C [9]: 117 % of control

COSc1ccccc1
T/C (dose: 100.0 mg/kg/injection, schedule: Q01DX001 (ip), vehicle: Klucel (hydroxypropylcellulose) (HPC)): 96 % of control | T/C (dose: 200.0 mg/kg/injection, schedule: Q01DX001 (ip), vehicle: Klucel (hydroxypropylcellulose) (HPC)): 90 % of control | T/C (dose: 400.0 mg/kg/injection, schedule: Q01DX001 (ip), vehicle: Klucel (hydroxypropylcellulose) (HPC)): 104 % of control

Cc1ccc(N=CNN(C)S(=O)(=O)c2ccc(C)cc2)cc1
T/C [7]: 92 % of control | T/C [8]: 108 % of control | T/C [9]: 90 % of control

CCCCCCCN(CCCCCCC)C(=N)c1ccc(OC)c2ccccc12
T/C (dose: 6.25 mg/kg/injection, schedule: Q01DX005 (ip), vehicle: Klucel (hydroxypropylcellulose) (HPC)): 101 % of control | T/C [10]: 101 % of control | T/C [11]: 89 % of control

O=C1c2ccccc2C(=O)c2c(O)c(NCCNCCO)cc(O)c21
T/C (dose: 1.25 mg/kg/injection, schedule: Q01DX009 (ip), vehicle: acid diluted with saline): 113 % of control | T/C (dose: 2.5 mg/kg/injection, schedule: Q01DX009 (ip), vehicle: acid diluted with saline): 98 % of control and 104 % of control | T/C (dose: 5.0 mg/kg/injection, schedule: Q01DX009 (ip), vehicle: acid diluted with saline): 117 % of control and 122 % of control | T/C (dose: 10.0 mg/kg/injection, schedule: Q01DX009 (ip), vehicle: acid diluted with saline): 108 % of control and 124 % of control | T/C (dose: 20.0 mg/kg/injection, schedule: Q01DX009 (ip), vehicle: acid diluted with saline): 104 % of control and 118 % of control | T/C (dose: 40.0 mg/kg/injection, schedule: Q01DX009 (ip), vehicle: acid diluted with saline): 108 % of control | T/C (dose: 80.0 mg/kg/injection, schedule: Q01DX009 (ip), vehicle: acid diluted with saline): 89 % of control

COc1ccccc1N=Nc1c(-c2cccs2)nn(C(N)=S)c1C(F)(F)F
T/C [7]: 99 % of control | T/C [8]: 97 % of control | T/C [9]: 89 % of control

O=C1CSC2(CCN(CCCN3c4ccccc4Sc4ccc(Cl)cc43)CC2)N1
T/C [12]: 98 % of control | T/C [13]: 116 % of control

CCCCCCCC/C=C/CCCCCCCC(=O)OCC(=O)OCC
T/C [4]: 102 % of control | T/C [5]: 93 % of control | T/C [6]: 104 % of control

NC(=S)c1ccc(C=NCc2ccccc2)cc1
T/C (dose: 100.0 mg/kg/injection, schedule: Q04DX002 (ip), vehicle: Klucel (hydroxypropylcellulose) (HPC)): 100 % of control | T/C (dose: 200.0 mg/kg/injection, schedule: Q04DX002 (ip), vehicle: Klucel (hydroxypropylcellulose) (HPC)): 100 % of control | T/C (dose: 400.0 mg/kg/injection, schedule: Q04DX002 (ip), vehicle: Klucel (hydroxypropylcellulose) (HPC)): 100 % of control

CC(=O)O[C@H]1CC[C@@]2(C)C(=CC[C@@H]3[C@@H]2CC[C@]2(C)C(=NCCCN4CCOCC4)CC[C@@H]32)C1
T/C [14]: 105 % of control | T/C [15]: 101 % of control | T/C (dose: 200.0 mg/kg/injection, schedule: Q01DX005 (ip), vehicle: Klucel (hydroxypropylcellulose) (HPC)): 99 % of control

COc1ccc(-c2cc(C(=O)Nc3cc(C(F)(F)F)cc(C(F)(F)F)c3)c3ccccc3n2)cc1
T/C [16]: 91 % of control | T/C (dose: 100.0 mg/kg/injection, schedule: Q01DX005 (ip), vehicle: DMSO): 118 % of control | T/C [17]: 89 % of control | T/C (dose: 200.0 mg/kg/injection, schedule: Q01DX005 (ip), vehicle: DMSO): 118 % of control | T/C (dose: 200.0 mg/kg/injection, schedule: Q01DX005 (ip), vehicle: saline with Tween-80): 93 % of control | T/C (dose: 400.0 mg/kg/injection, schedule: Q01DX005 (ip), vehicle: DMSO): 96 % of control

OC(COc1c2ccccc2nc2ccccc12)CN1CCN(c2ccccc2)CC1 (configuration not stated)
T/C [16]: 94 % of control | T/C [17]: 90 % of control

Nc1cnnc2nc[nH]c12
T/C [10]: 100 % of control | T/C [11]: 101 % of control | T/C [14]: 100 % of control and 111 % of control | T/C [15]: 117 % of control

CC(C)(C)NC=C(C#N)C#N
T/C [12]: 86 % of control

COc1ccc2c(NCCCCNc3c4ccccc4nc4cc(OC)ccc34)c3ccccc3nc2c1
T/C (dose: 0.62 mg/kg/injection, schedule: Q01DX009 (ip), vehicle: other): 101 % of control | T/C (dose: 1.25 mg/kg/injection, schedule: Q01DX009 (ip), vehicle: other): 102 % of control | T/C (dose: 2.5 mg/kg/injection, schedule: Q01DX009 (ip), vehicle: other): 108 % of control | T/C (dose: 5.0 mg/kg/injection, schedule: Q01DX009 (ip), vehicle: other): 101 % of control | T/C (dose: 10.0 mg/kg/injection, schedule: Q01DX009 (ip), vehicle: other): 107 % of control | T/C (dose: 20.0 mg/kg/injection, schedule: Q01DX009 (ip), vehicle: other): 110 % of control

CCCCCCCSc1nc2ccc(N=Cc3ccccc3O)cc2s1
T/C [4]: 93 % of control | T/C [5]: 103 % of control | T/C [6]: 103 % of control

COc1cc(-c2oc3ccccc3c(=O)c2O)cc(OC)c1OC
T/C [12]: 93 % of control | T/C [13]: 91 % of control | T/C (dose: 200.0 mg/kg/injection, schedule: Q01DX009 (ip), vehicle: saline with Tween-80): 93 % of control

CS(=O)(=O)OCC(O)C(O)C(O)C(O)COS(C)(=O)=O (configuration not stated)
T/C (dose: 50.0 mg/kg/injection, schedule: Q01DX010 (ip), vehicle: saline): 100 % of control | T/C (dose: 100.0 mg/kg/injection, schedule: Q01DX010 (ip), vehicle: saline): 100 % of control | T/C (dose: 200.0 mg/kg/injection, schedule: Q01DX010 (ip), vehicle: saline): 172 % of control | T/C (dose: 400.0 mg/kg/injection, schedule: Q01DX010 (ip), vehicle: saline): 209 % of control
